Test results: patent publication US20250034151A1, “WEE1 INHIBITOR, PREPARATION THEREFOR, AND USE THEREOF” (JIANGSU TASLY DIYI PHARMACEUTICAL CO., LTD., priority 2022, published 2025)

Key:
H1299 cells = test: Anti-proliferative effect on H1299 cells by Cell Titer-Glo; assay type: cell-based; conditions: Homo sapiens, NCI-H1299, 72 h, 3 days, read-out: H1299 (IC50, inhibition of proliferation in vitro)
How it was run: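 H1299 cells exposed to compound dilutions for 3 days at 37 °C, 5% CO2, final DMSO 0.2%. Viability read by CellTiter-Glo luminescence, normalised to untreated-cell (max) and medium (min) controls. IC50 from a variable-slope log(inhibitor) vs. response fit.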

MIA PaCa2 cells = test: Anti-proliferative effect on MIA PaCa2 cells by Cell Titer-Glo; assay type: cell-based; conditions: Homo sapiens, MIA PaCa-2, 72 h, 3 days, read-out: MIA PaCa 2 (IC50, inhibition of proliferation in vitro)
How it was run: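 Cells exposed to graded compound concentrations for 3 days at 37° C, 5% CO2, final DMSO 0.2%; viability read by CellTiter-Glo luminescence. Inhibition normalised to untreated cells (max) and medium (min); IC50 fitted by variable-slope log(inhibitor)-response model.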

[1] = Membrane permeability study (Caco-2); assay type: in vitro ADME; conditions: human; for Papp A→B at 90 min, 10 µM / Papp B→A at 90 min, 10 µM: pH 7.4, Caco-2, 10 μM; for Papp A→B at 90 min, 10 µM: apical to basolateral; for Papp B→A at 90 min, 10 µM: basolateral to apical
Description: Caco-2 cells were purchased from the […] (Rockville, MD). The cell culture medium was modified Eagle's medium (MEM) containing 10% inactivated fetal bovine serum and 1% non-essential amino acids.
The cells were incubated for 21-28 days after inoculation for transport experiments and the apparent permeability (Papp) of Lucifer Yellow was used to characterize and verify the compactness of the cell monolayer. […] A 10 μM working solution of the compound to be tested was added to the apical side and basolateral side of Caco-2 and incubated at 37° C. for 90 min. After the incubation, dilute the samples on the apical side and basolateral side, and the concentrations of compounds on the apical and basolateral sides were detected by LC-MS/MS, and the concentrations of the compounds were quantified by standard curve.

[2] = Plasma protein binding (PPB), equilibrium dialysis; assay type: in vitro ADME; conditions: mouse plasma, 5 h dialysis
Description: 1. Experimental Procedure
2. Data Processing and Parameter Calculation

[3] = Pharmacokinetics on single dose in mice (intravenous and oral); assay type: in vivo, ICR mice; conditions: for F/%: Oral 10 mg/kg vs Intravenous 1 mg/kg; for AUC(0-t) / Cmax / MRT / half-life: male, ICR, mouse, plasma
Description: 1. Experimental Aim: The present experiment aimed to obtain the pharmacokinetic profile of the subject compounds in ICR mice (both intravenous and oral) 3.1.2 Test System Species: SPF grade male ICR mice Body weight/weekly age: about 30 g 4. […] 4.2 Subjects Given (Route) Intravenous: 1 mg/kg in a volume of 5 mL/kg Gavage: 10 mg/kg in a volume of 10 mL/kg Ultrasound for 5 min before administration 4.3 Subject Preparation (Concentration) Intravenous: 0.2 mg/mL Gavage: 1 mg/mL Fast overnight before administration and feed four hours after administration. […] The blood samples were stored in a refrigerator at or below −20° C. for LC-MS/MS analysis. […] LC-MS/MS Analytical Detection Used 5. Data Processing The samples were detected for drug concentration at each time point by LC-MS/MS. Pharmacokinetic parameters terminal elimination half-life (t1/2), area under the curve (AUC), apparent volume of distribution (Vd), clearance (CL), mean residence time (MRT), and Cmax were calculated using the non-compartmental model of Phoenix WinNonlin 5.2. Bioavailability (F %) was directly from serum concentration results. Mean±standard deviation (X±SD) was used for blood concentration and pharmacokinetic parameters, etc. Specific testing and analytical methods were specified in the form of protocol revisions.

CYP2B6 = biological target: T1, CYP2B6 (Homo sapiens, UniProt P20813); test: CYP450 isoform enzymatic inhibition, 2B6; assay type: in vitro ADME; conditions: CYP2B6 enzyme, pH 7.4, read-out: CYP inhibiton/% 2B6
T1 sequence (P20813 1-491): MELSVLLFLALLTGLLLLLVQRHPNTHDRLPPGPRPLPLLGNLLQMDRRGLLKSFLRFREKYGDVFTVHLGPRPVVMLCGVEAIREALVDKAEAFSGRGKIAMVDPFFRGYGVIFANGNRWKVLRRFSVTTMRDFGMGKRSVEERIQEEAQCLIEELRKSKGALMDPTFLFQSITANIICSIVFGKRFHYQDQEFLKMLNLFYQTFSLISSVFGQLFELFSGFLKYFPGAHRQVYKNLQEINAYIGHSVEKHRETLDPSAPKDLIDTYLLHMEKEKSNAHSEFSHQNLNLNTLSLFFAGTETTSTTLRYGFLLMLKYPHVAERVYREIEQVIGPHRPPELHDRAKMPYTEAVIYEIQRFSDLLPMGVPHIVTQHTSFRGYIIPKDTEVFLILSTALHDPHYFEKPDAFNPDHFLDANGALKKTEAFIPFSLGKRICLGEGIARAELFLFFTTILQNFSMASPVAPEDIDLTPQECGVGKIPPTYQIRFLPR

| inhibition at 30 min, 10 µM (CYP2B6) [%] | Structure (SMILES) | IC50 (H1299 cells) [nM] | IC50 (MIA PaCa2 cells) [nM] | efflux ratio at 90 min, 10 µM ([1]; Caco-2, pH 7.4) | Papp A→B at 90 min, 10 µM [1] [×10⁻⁶ cm/s] | Papp B→A at 90 min, 10 µM [1] [×10⁻⁶ cm/s] | fraction unbound at 5 h, 1 µM [2] | F/% [3] [%] | AUC(0-t) ([3]; Intravenous, 1 mg/kg) [ng·h/mL] | Cmax ([3]; Intravenous, 1 mg/kg) [ng/mL] | MRT ([3]; Intravenous, 1 mg/kg) [min] | half-life ([3]; Intravenous, 1 mg/kg) [min] | AUC(0-t) ([3]; Oral, 10 mg/kg) [ng·h/mL] | Cmax ([3]; Oral, 10 mg/kg) [ng/mL] | MRT ([3]; Oral, 10 mg/kg) [min] | half-life ([3]; Oral, 10 mg/kg) [min] |
| --- | --- | --- | --- | --- | --- | --- | --- | --- | --- | --- | --- | --- | --- | --- | --- | --- |
| – | C=CCn1c(=O)c2cnc(Nc3ccc(N4CC5CC(C4)N5C)cc3)nc2n1-c1cccc(C(C)(C)O)n1 [Compound 27] | 100 to 1000 | 100 to 1000 | 17.4 | 3.07 | 53.5 | 0.141 | 28.6 | 134 | 170 | 39.6 | 46.8 | 285 | 392 | 66 | 61.8 |
| 17.4 | C=CCn1c(=O)c2cnc(Nc3ccc(N4CCN(C)CC4)cc3)nc2n1-c1cccc(C(C)(C)O)n1 [AZD1775] | 100 to 1000 | 100 to 1000 | – | 15.6 | 39.8 | 0.087 | 32 | – | 250 | – | 30 | – | – | – | – |
